Patent US20090233307A1, “METHODS FOR DETECTION OF SINGLE STRAND BREAKS IN DNA” (The University of North Carolina at Chapel Hill, priority 2008, published 2009)

Legend:
Pol β null cells [1] = assay: SSB repair through NAD(P)H depletion, Pol β null cells; type: cell-based, chicken; conditions: 1 mM MMS for up to 4 hours, Pol β null cells
Procedure: SSB repair capacity was determined by a real-time colorimetric assay that measures intracellular NAD(P)H levels (Tano et al., DNA Repair, 6, 869-875 (2007)). PARP-1 activation during SSB repair leads to NAD^+ consumption, which can be indirectly monitored through NAD(P)H depletion (Nakamura et al., Nucleic Acids Res., 31, e104 (2003)). Briefly, 5×10^3 cells/well were seeded into a 96-well plate. After a 30 minute incubation period, the cells were treated with 1 mM MMS quickly followed by the addition of a dye containing XTT (Sigma) and 1-methoxy PMS (Sigma). For up to 4 hours, the NAD(P)H-dependent conversion of the XTT tetrazolium salt to a yellow colored formazan dye was measured spectrophotometrically. Decreases in intracellular NAD(P)H levels were determined through comparison of values to those of the PBS control. Established methods for detecting SSBs have not been adequately characterized for pH effects on DNA structure and chemistry and also lack a high specificity for SSBs, primarily because of artifactual SSB formation. […] The accumulation of SSBs leads to PARP-1 over-activation and the consumption of NAD+, which is indirectly monitored in living cells through the measurement of intracellular NAD(P)H depletion using tetrazolium salts, such as XTT, during chemical exposure (Tano et al., DNA Repair, 6, 869-875 (2007)). […]

DT40 cells = type: cell-based; conditions: chicken, 1 mM
Procedure: (§1) DT40 and Pol β null cells were seeded into 100 cm dishes and allowed to divide overnight to reach the density of 1×10^6 cells/mL. Cells were exposed to a continuous treatment of 1 mM methyl methanesulfonate (MMS; Aldrich) for up to 4 hours. Control cells received 1× phosphate buffered saline (PBS) for 0.5 hour. After incubation, cells were harvested, washed with chilled 1× PBS, pelleted, and stored at −80° C. until DNA isolation. Using this protocol, DT40 cells were also incubated in the absence of chemical to obtain a stock of untreated DNA.

Pol β null cells [2] = type: cell-based, chicken
Procedure: as §1

[3] = system: Chinese hamster ovary (CHO) AA8 cells; assay: OTX-coupled comet assay; type: cell-based; conditions: 10 minute exposure to 1 mM MMS, CHO AA8
Procedure: Chinese hamster ovary (CHO) AA8 cells were seeded at a concentration 0.5×10^6 cell/mL into several 10 cm culture dishes with 10 mL of MEM-α media (Gibco) supplemented with 10% fetal bovine serum (heat inactivated; Sigma), 100 μg/mL penicillin, and 100 μg/mL streptomycin. These were allowed to grow for 48 hours at 37° C. and 5% CO2. Culture dishes were about 80-85% confluent at harvest.
Before cells were harvested for use in the comet assay, the lysis solution (2.5 M NaCl, 100 mM Na2-EDTA, 10 mM Trizma, pH 10) was completed with the addition of 10% (v/v) DMSO and 1% (v/v) Triton X-100, mixed thoroughly, and refrigerated at 4° C. A 0.5% solution of low melting point agarose (LMPA) was also prepared and allowed to equilibrate to 37° C. in a water bath. Partially frosted microscope slides, pre-coated several days before with 50 μL of 1% normal melting point agarose (NMPA), were labeled and set aside.
Prior to cell harvest, the media was removed and each dish was washed with 10 mL of 1×PBS. An additional 2 mL of 1×PBS was added to each dish and the cells were harvested using a rubber policeman. Harvested cells were combined into 15 mL centrifuged tubes and gently mixed by pipetting to obtain a homogenous cell sample. The cell count was obtained using a hemacytometer. The volume of cell sample needed to obtain 11,000 cells per slide to be prepared was added to a new 15 mL centrifuge tube and centrifuged for 5 minutes at 1,100 RPM. The supernatant was removed and the cell pellet resuspended in 1×PBS at a volume equal to 10 μL per slide to be prepared (e.g. 5 slides×10 μL per slide=50 μL 1×PBS total).
For each slide to be prepared, 10 μL of the cell sample was added to a 1.5 mL centrifuge tube. The cell layer of the slide was created by first gently mixing 100 μL of the 0.5% LMPA with the 10 μL of cell sample in the tube. This mixture was then added to a pre-coated slide and a coverslip placed onto the slide to create a thin layer of the cell mixture. Slides with cell layers were then refrigerated at 4° C. for 15 minutes to solidify the gel. After this incubation, the initial coverslips were removed and an additional 150 μL of 0.5% LMPA was added to each slide. A fresh coverslip was placed onto each slide to create a thin top layer and the slides were refrigerated for another 15 minutes. After removing the coverslip, completed slides that were receiving MMS treatment were placed in a slide chamber containing warmed MEM-α media with 1 mM MMS for 10 minutes. The slide chamber was kept warm by placing it within an incubator held at 37° C. After the 10 minutes, the slides were washed with 1×PBS for 5 minutes at room temperature and then transferred to slide chambers containing the chilled lysis solution. […]

## COS(C)(=O)=O [MMS, methyl methanesulfonate]
Pol β null cells [1]
  intracellular NAD(P)H levels: time-dependent decrease but with more extensive depletion occurring as early as 30 minutes
DT40 cells
  AP sites (ASB assay) compared to control: time-dependent, significant (p<0.01 for all time points, student t-test) increase in AP sites
Pol β null cells [2]
  AP site formation (ASB assay) compared with parental DT40 cells: more massive AP site formation
Pol β null cells [2]; chicken, 1 mM
  AP sites (ASB assay) compared to control: time-dependent, significant (p<0.01 for all time points, student t-test) increase in AP sites
[3]
  tail moment compared to the untreated control (no MMS): significant difference in tail moment
